Patent US7968556B2, “Heteroaryl compounds, compositions thereof, and methods of treatment therewith” (Signal Pharmaceuticals, LLC, priority 2006, dated 2011)

Row | SMILES | melting point
1 | COc1ccccc1-n1cnc2c(C(N)=O)nc(Nc3cccc(O)c3)nc21 [Compound 51, 2-(3-Hydroxyphenylamino)-9-(2-methoxyphenyl)-9H-purine-6-carboxamide] | 155 to 157 °C
2 | COc1ccccc1-n1c(=O)[nH]c2c(C(N)=O)nc(Nc3cccc(CO)c3)nc21 [Compound 123, 2-(3-(Hydroxymethyl)phenylamino)-9-(2-methoxyphenyl)-8-oxo-8,9-dihydro-7H-purine-6-carboxamide] | 237 to 239 °C
3 | COc1ccccc1-n1c(=O)[nH]c2c(C(N)=O)nc(Nc3ccc(O)cc3)nc21 [Compound 46, 2-(4-Hydroxyphenylamino)-9-(2-methoxyphenyl)-8-oxo-8,9-dihydro-7H-purine-6-carboxamide] | 223 to 224 °C
4 | CC(C)c1ccccc1-n1c(=O)[nH]c2c(C(N)=O)nc(-c3cnc4[nH]ccc4c3)nc21 [Compound 136, 9-(2-Isopropylphenyl)-8-oxo-2-(1H-pyrrolo[2,3-b]pyridin-5-yl)-8,9-dihydro-7H-purine-6-carboxamide] | 380 °C (dec.)
5 | CC(C)c1ccccc1-n1c(=O)[nH]c2c(C(N)=O)nc(-c3ccc(-c4ncc[nH]4)cc3)nc21 [Compound 133, 2-(4-(1H-Imidazol-2-yl)phenyl)-9-(2-isopropylphenyl)-8-oxo-8,9-dihydro-7H-purine-6-carboxamide] | 340 °C (dec.)
6 | CO[C@H]1CC[C@@H](n2c(=O)[nH]c3c(C(N)=O)nc(-c4ccc5nc[nH]c5c4)nc32)CC1 [Compound 167, 2-(1H-Benzo[d]imidazol-6-yl)-9-(cis-4-methoxycyclohexyl)-8-oxo-8,9-dihydro-7H-purine-6-carboxamide] | 345 °C (dec.)
7 | COc1ccccc1-n1c(=O)[nH]c2c(C(N)=O)nc(NC[C@@H]3CCCN3)nc21 [Compound 114, (S)-9-(2-Methoxyphenyl)-8-oxo-2-(pyrrolidin-2-ylmethylamino)-8,9-dihydro-7H-purine-6-carboxamide] | 160 to 165 °C
8 | NC(=O)c1nc(-c2cccc(O)c2)nc2c1[nH]c(=O)n2-c1ccccc1-c1ccccc1 [Compound 119, 9-(Biphenyl-2-yl)-2-(3-hydroxyphenyl)-8-oxo-8,9-dihydro-7H-purine-6-carboxamide] | 293 to 296 °C
9 | NC(=O)c1nc(-c2cnc3nc[nH]c3c2)nc2c1[nH]c(=O)n2C1CCCCC1 [Compound 150, 9-Cyclohexyl-2-(1H-imidazo[4,5-b]pyridin-6-yl)-8-oxo-8,9-dihydro-7H-purine-6-carboxamide] | 320 °C (dec.)
10 | NC(=O)c1nc(-c2cccc(O)c2)nc2c1[nH]c(=O)n2-c1ccccc1C1CCCC1 [Compound 153, 9-(2-Cyclopentylphenyl)-2-(3-hydroxyphenyl)-8-oxo-8,9-dihydro-7H-purine-6-carboxamide] | > 260 °C
11 | CC(C)Cn1c(=O)[nH]c2c(C(N)=O)nc(-c3cccc(O)c3)nc21 [Compound 142, 2-(3-Hydroxyphenyl)-9-isobutyl-8-oxo-8,9-dihydro-7H-purine-6-carboxamide] | 374 to 376 °C
12 | COc1ccccc1-n1c(=O)[nH]c2c(C(N)=O)nc(Nc3ccc(Cn4ccnc4)cc3)nc21 [Compound 111, 2-(4-((1H-Imidazol-1-yl)methyl)phenylamino)-9-(2-methoxyphenyl)-8-oxo-8,9-dihydro-7H-purine-6-carboxamide] | 165 to 170 °C
13 | NC(=O)c1nc(-c2cccc(O)c2)nc2c1[nH]c(=O)n2C1CCc2ccccc21 (centres unmarked) [Compound 141, 9-(2,3-Dihydro-1H-inden-1-yl)-2-(3-hydroxyphenyl)-8-oxo-8,9-dihydro-7H-purine-6-carboxamide] | 341 to 343 °C
14 | CC(C)Cc1ccccc1-n1c(=O)[nH]c2c(C(N)=O)nc(-c3cccc(O)c3)nc21 [Compound 161, 2-(3-Hydroxyphenyl)-9-(2-isobutylphenyl)-8-oxo-8,9-dihydro-7H-purine-6-carboxamide] | > 260 °C
15 | COc1ccccc1-n1c(=O)[nH]c2c(C(N)=O)nc(NCCO)nc21 [Compound 116, 2-(2-Hydroxyethylamino)-9-(2-methoxyphenyl)-8-oxo-8,9-dihydro-7H-purine-6-carboxamide] | 157 to 160 °C

Continued, values first:

Row | melting point | SMILES
16 | 358 °C (dec.) | COc1ccccc1-n1c(=O)[nH]c2c(C(N)=O)nc(-c3cnc4nc[nH]c4c3)nc21 [Compound 130, 2-(1H-Imidazo[4,5-b]pyridin-6-yl)-9-(2-methoxyphenyl)-8-oxo-8,9-dihydro-7H-purine-6-carboxamide]
17 | 220 to 222 °C | COc1ccccc1-n1c(=O)[nH]c2c(C(N)=O)nc(-c3ccc4nc(C(F)(F)F)[nH]c4c3)nc21 [Compound 117, 9-(2-Methoxyphenyl)-8-oxo-2-(2-(trifluoromethyl)-1H-benzo[d]imidazol-6-yl)-8,9-dihydro-7H-purine-6-carboxamide]
18 | 316 to 318 °C | COc1ccccc1-n1c(=O)[nH]c2c(C(N)=O)nc(-c3cccc(C#N)c3)nc21 [Compound 55, 2-(3-Cyanophenyl)-9-(2-methoxyphenyl)-8-oxo-8,9-dihydro-7H-purine-6-carboxamide]
19 | 306 °C | COc1ccccc1-n1c(=O)[nH]c2c(C(N)=O)nc(-c3ccc4nc[nH]c4c3)nc21 [Compound 91, 2-(1H-Benzo[d]imidazol-6-yl)-9-(2-methoxyphenyl)-8-oxo-8,9-dihydro-7H-purine-6-carboxamide]
20 | 244 to 245 °C | COc1ccccc1-n1c(=O)[nH]c2c(C(N)=O)nc(-c3ccc4[nH]c(SC)nc4c3)nc21 [Compound 138, 9-(2-Methoxyphenyl)-2-(2-(methylthio)-1H-benzo[d]imidazol-5-yl)-8-oxo-8,9-dihydro-7H-purine-6-carboxamide]
21 | 230 to 232 °C | NC(=O)c1nc(-c2cncc(Cl)c2)nc2c1[nH]c(=O)n2-c1ccccc1C(F)(F)F [Compound 103, 2-(5-Chloropyridin-3-yl)-8-oxo-9-(2-(trifluoromethyl)phenyl)-8,9-dihydro-7H-purine-6-carboxamide]
22 | 348 to 350 °C | COc1ccccc1-n1c(=O)[nH]c2c(C(N)=O)nc(-c3cccc(C(=O)O)c3)nc21 [Compound 62, 3-(6-Carbamoyl-9-(2-methoxyphenyl)-8-oxo-8,9-dihydro-7H-purin-2-yl)benzoic acid]
23 | > 350 °C | COc1ccccc1-n1c(=O)[nH]c2c(C(N)=O)nc(-c3ccc(C(N)=O)cc3)nc21 [Compound 65, 2-(4-Carbamoylphenyl)-9-(2-methoxyphenyl)-8-oxo-8,9-dihydro-7H-purine-6-carboxamide]
24 | 270 °C | COc1ccccc1-n1c(=O)[nH]c2c(C(N)=O)nc(-c3ccc4nc(C)[nH]c4c3)nc21 [Compound 122, 9-(2-Methoxyphenyl)-2-(2-methyl-1H-benzo[d]imidazol-6-yl)-8-oxo-8,9-dihydro-7H-purine-6-carboxamide]
25 | 331 to 335 °C | NC(=O)c1nc(-c2cccnc2O)nc2c1[nH]c(=O)n2-c1ccccc1C(F)(F)F [Compound 129, 2-(2-Hydroxypyridin-3-yl)-8-oxo-9-(2-(trifluoromethyl)phenyl)-8,9-dihydro-7H-purine-6-carboxamide]
26 | 338 to 339 °C | COc1ccccc1-n1c(=O)[nH]c2c(C(N)=O)nc(-c3cccc(C(N)=O)c3)nc21 [Compound 68, 2-(3-Carbamoylphenyl)-9-(2-methoxyphenyl)-8-oxo-8,9-dihydro-7H-purine-6-carbox amide]
